The source of these data is the supplement of paper PMC10307832.

Holding throughout (experiment): relative viability (nuclei count vs DMSO), 5 days (fraction); higher = more cells survive
Compound in the assay “Afatinib + Pictilisib”: CN(C)C/C=C/C(=O)Nc1cc2c(Nc3ccc(F)c(Cl)c3)ncnc2cc1O[C@H]1CCOC1 [Afatinib] + CS(=O)(=O)N1CCN(Cc2cc3nc(-c4cccc5[nH]ncc45)nc(N4CCOCC4)c3s2)CC1 [Pictilisib] (partner 1 µM)
The procedure, abridged:
(§1)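 Lung cancer cell lines in 1536-well plates got either a single drug or a fixed anchor-drug dose together with five library-drug doses (not always all listed) in √10 steps, by pin tool, on the day after seeding. Nuclei were counted after 5 days, and relative viability is the treated-to-vehicle ratio of nuclei counts. Values are medians of duplicate plates.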

Compound in the assay “Afatinib + Phenformin”: CN(C)C/C=C/C(=O)Nc1cc2c(Nc3ccc(F)c(Cl)c3)ncnc2cc1O[C@H]1CCOC1 [Afatinib] + N=C(N)NC(=N)NCCc1ccccc1 [Phenformin] (partner 250 µM)
The procedure, abridged: as §1

Compound in the assay “Afatinib + Palbociclib”: CN(C)C/C=C/C(=O)Nc1cc2c(Nc3ccc(F)c(Cl)c3)ncnc2cc1O[C@H]1CCOC1 [Afatinib] + CC(=O)c1c(C)c2cnc(Nc3ccc(N4CCNCC4)cn3)nc2n(C2CCCC2)c1=O [Palbociclib] (partner 0.5 µM)
The procedure, abridged:
as §1

Compound in the assay “Afatinib + Decitabine”: CN(C)C/C=C/C(=O)Nc1cc2c(Nc3ccc(F)c(Cl)c3)ncnc2cc1O[C@H]1CCOC1 [Afatinib] + Nc1ncn([C@H]2C[C@H](O)[C@@H](CO)O2)c(=O)n1 [Decitabine] (partner 2 µM)
The procedure, abridged: as §1

On to NCI-H838, for which the relative viability in the assay with Afatinib + Pictilisib (first compound 0.005 µM) came out at 0.441; with Afatinib + Pictilisib (first compound 0.01581 µM) it was 0.462; with Afatinib + Pictilisib (first compound 0.05 µM), 0.453; in the assay with Afatinib + Pictilisib (first compound 0.1581 µM) it was 0.497; with Afatinib + Pictilisib (first compound 0.5 µM), 0.524; with Afatinib + Phenformin (first compound 0.005 µM), 0.675. The relative viability with Afatinib + Phenformin (first compound 0.01581 µM) was determined as 0.54; with Afatinib + Phenformin (first compound 0.05 µM) it was 0.582; with Afatinib + Phenformin (first compound 0.1581 µM) it was 0.567; in the assay with Afatinib + Phenformin (first compound 0.5 µM) it was 0.553; with Afatinib + Palbociclib (first compound 0.005 µM), 0.216; with Afatinib + Palbociclib (first compound 0.01581 µM), 0.227. The relative viability with Afatinib + Palbociclib (first compound 0.05 µM) was 0.242; with Afatinib + Palbociclib (first compound 0.1581 µM), 0.214; in the assay with Afatinib + Palbociclib (first compound 0.5 µM), 0.233; with Afatinib + Decitabine (first compound 0.005 µM) it was 0.496; with Afatinib + Decitabine (first compound 0.01581 µM), 0.445; with Afatinib + Decitabine (first compound 0.05 µM), 0.481. The results for the relative viability in the assay with Afatinib + Decitabine (first compound 0.1581 µM) and with Afatinib + Decitabine (first compound 0.5 µM) were 0.451 and 0.461, respectively.

Consider NCI-H1437, for which the relative viability with Afatinib + Pictilisib (first compound 0.005 µM) was determined as 0.489; in the assay with Afatinib + Pictilisib (first compound 0.01581 µM), 0.407; with Afatinib + Pictilisib (first compound 0.05 µM), 0.378; with Afatinib + Pictilisib (first compound 0.1581 µM), 0.468; with Afatinib + Pictilisib (first compound 0.5 µM), 0.471; with Afatinib + Phenformin (first compound 0.005 µM), 0.333. In addition, the relative viability with Afatinib + Phenformin (first compound 0.01581 µM) is 0.294; with Afatinib + Phenformin (first compound 0.05 µM), 0.334; in the assay with Afatinib + Phenformin (first compound 0.1581 µM) it was 0.358; in the assay with Afatinib + Phenformin (first compound 0.5 µM), 0.302; with Afatinib + Palbociclib (first compound 0.005 µM), 0.305; in the assay with Afatinib + Palbociclib (first compound 0.01581 µM), 0.294. The relative viability was 0.281 with Afatinib + Palbociclib (first compound 0.05 µM); 0.31 in the assay with Afatinib + Palbociclib (first compound 0.1581 µM); 0.341 with Afatinib + Palbociclib (first compound 0.5 µM); 0.597 with Afatinib + Decitabine (first compound 0.005 µM); 0.552 in the assay with Afatinib + Decitabine (first compound 0.01581 µM); 0.542 in the assay with Afatinib + Decitabine (first compound 0.05 µM). The relative viability with Afatinib + Decitabine (first compound 0.1581 µM) is 0.535; with Afatinib + Decitabine (first compound 0.5 µM) it was 0.552.

Regarding NCI-H2170, the relative viability with Afatinib + Pictilisib (first compound 0.005 µM) is 0.285; in the assay with Afatinib + Pictilisib (first compound 0.01581 µM) it was 0.228; with Afatinib + Pictilisib (first compound 0.05 µM), 0.237; with Afatinib + Pictilisib (first compound 0.1581 µM) it was 0.185; in the assay with Afatinib + Pictilisib (first compound 0.5 µM), 0.209; in the assay with Afatinib + Phenformin (first compound 0.005 µM) it was 0.368. Besides, the relative viability was 0.383 with Afatinib + Phenformin (first compound 0.01581 µM); 0.335 in the assay with Afatinib + Phenformin (first compound 0.05 µM); 0.216 with Afatinib + Phenformin (first compound 0.1581 µM); 0.208 with Afatinib + Phenformin (first compound 0.5 µM); 0.389 with Afatinib + Palbociclib (first compound 0.005 µM); 0.357 with Afatinib + Palbociclib (first compound 0.01581 µM). The relative viability amounted to 0.275 in the assay with Afatinib + Palbociclib (first compound 0.05 µM); 0.139 with Afatinib + Palbociclib (first compound 0.1581 µM); 0.116 with Afatinib + Palbociclib (first compound 0.5 µM); 0.459 with Afatinib + Decitabine (first compound 0.005 µM); 0.469 with Afatinib + Decitabine (first compound 0.01581 µM); 0.405 in the assay with Afatinib + Decitabine (first compound 0.05 µM). Also, the relative viability amounted to 0.176 with Afatinib + Decitabine (first compound 0.1581 µM) and 0.2 with Afatinib + Decitabine (first compound 0.5 µM).

In the case of NCI-H1648, the relative viability came to 0.248 with Afatinib + Palbociclib (first compound 0.005 µM); 0.304 with Afatinib + Palbociclib (first compound 0.01581 µM); 0.269 with Afatinib + Palbociclib (first compound 0.05 µM); 0.344 in the assay with Afatinib + Palbociclib (first compound 0.1581 µM); 0.263 with Afatinib + Palbociclib (first compound 0.5 µM); 0.551 with Afatinib + Decitabine (first compound 0.005 µM). Also, the relative viability with Afatinib + Decitabine (first compound 0.01581 µM) was 0.419; with Afatinib + Decitabine (first compound 0.05 µM), 0.378; with Afatinib + Decitabine (first compound 0.1581 µM) it was 0.417; with Afatinib + Decitabine (first compound 0.5 µM), 0.34.

As for SW 900, the relative viability stood at 0.642 in the assay with Afatinib + Phenformin (first compound 0.005 µM); 0.499 with Afatinib + Phenformin (first compound 0.01581 µM); 0.682 with Afatinib + Phenformin (first compound 0.05 µM); 0.486 in the assay with Afatinib + Phenformin (first compound 0.1581 µM); 0.399 with Afatinib + Phenformin (first compound 0.5 µM); 0.464 in the assay with Afatinib + Palbociclib (first compound 0.005 µM). In addition, the relative viability was found to be 0.354 in the assay with Afatinib + Palbociclib (first compound 0.01581 µM); 0.438 in the assay with Afatinib + Palbociclib (first compound 0.05 µM); 0.43 with Afatinib + Palbociclib (first compound 0.1581 µM); 0.49 in the assay with Afatinib + Palbociclib (first compound 0.5 µM); 0.502 with Afatinib + Decitabine (first compound 0.005 µM); 0.334 with Afatinib + Decitabine (first compound 0.01581 µM). The relative viability in the assay with Afatinib + Decitabine (first compound 0.05 µM) was determined as 0.378; with Afatinib + Decitabine (first compound 0.1581 µM), 0.398; in the assay with Afatinib + Decitabine (first compound 0.5 µM), 0.443.

As for NCI-H596, the relative viability in the assay with Afatinib + Pictilisib (first compound 0.005 µM) stood at 0.35; in the assay with Afatinib + Pictilisib (first compound 0.01581 µM), 0.394; with Afatinib + Pictilisib (first compound 0.05 µM) it was 0.4; in the assay with Afatinib + Pictilisib (first compound 0.1581 µM), 0.384; with Afatinib + Pictilisib (first compound 0.5 µM) it was 0.415; in the assay with Afatinib + Phenformin (first compound 0.005 µM), 0.804. For the same cell line, the relative viability in the assay with Afatinib + Phenformin (first compound 0.01581 µM) stood at 0.804; in the assay with Afatinib + Phenformin (first compound 0.05 µM), 0.729; with Afatinib + Phenformin (first compound 0.1581 µM) it was 0.753; in the assay with Afatinib + Phenformin (first compound 0.5 µM), 0.685; in the assay with Afatinib + Decitabine (first compound 0.005 µM), 1.02; in the assay with Afatinib + Decitabine (first compound 0.01581 µM), 0.962. The relative viability with Afatinib + Decitabine (first compound 0.05 µM) amounted to 1.08; with Afatinib + Decitabine (first compound 0.1581 µM), 1.1; in the assay with Afatinib + Decitabine (first compound 0.5 µM), 1.01.

Consider IA-LM, for which the relative viability in the assay with Afatinib + Pictilisib (first compound 0.005 µM) is 0.251; in the assay with Afatinib + Pictilisib (first compound 0.01581 µM) it was 0.221; in the assay with Afatinib + Pictilisib (first compound 0.05 µM) it was 0.227; in the assay with Afatinib + Pictilisib (first compound 0.1581 µM), 0.198; with Afatinib + Pictilisib (first compound 0.5 µM) it was 0.212.

NCI-H1563: the relative viability with Afatinib + Pictilisib (first compound 0.005 µM) was 0.6; in the assay with Afatinib + Pictilisib (first compound 0.01581 µM), 0.644; in the assay with Afatinib + Pictilisib (first compound 0.05 µM), 0.683; with Afatinib + Pictilisib (first compound 0.1581 µM), 0.637; with Afatinib + Pictilisib (first compound 0.5 µM), 0.657; in the assay with Afatinib + Phenformin (first compound 0.005 µM) it was 0.625. The relative viability with Afatinib + Phenformin (first compound 0.01581 µM) was 0.667; in the assay with Afatinib + Phenformin (first compound 0.05 µM) it was 0.649; in the assay with Afatinib + Phenformin (first compound 0.1581 µM), 0.651; with Afatinib + Phenformin (first compound 0.5 µM), 0.623.

With NCI-H522, the relative viability with Afatinib + Phenformin (first compound 0.005 µM) came out at 0.729; in the assay with Afatinib + Phenformin (first compound 0.01581 µM), 0.584; in the assay with Afatinib + Phenformin (first compound 0.05 µM), 0.643; with Afatinib + Phenformin (first compound 0.1581 µM), 0.532; with Afatinib + Phenformin (first compound 0.5 µM), 0.698; with Afatinib + Palbociclib (first compound 0.005 µM) it was 1. The relative viability is 1.05 with Afatinib + Palbociclib (first compound 0.01581 µM); 1.15 with Afatinib + Palbociclib (first compound 0.05 µM); 0.881 with Afatinib + Palbociclib (first compound 0.1581 µM); 0.675 in the assay with Afatinib + Palbociclib (first compound 0.5 µM); 0.644 with Afatinib + Decitabine (first compound 0.005 µM); 0.672 with Afatinib + Decitabine (first compound 0.01581 µM). The results for the relative viability with Afatinib + Decitabine (first compound 0.05 µM), with Afatinib + Decitabine (first compound 0.1581 µM) and in the assay with Afatinib + Decitabine (first compound 0.5 µM) were 0.736, 0.655 and 0.581, respectively.

Turning to CAL-12T, the relative viability is 0.389 with Afatinib + Pictilisib (first compound 0.005 µM); 0.393 with Afatinib + Pictilisib (first compound 0.01581 µM); 0.347 in the assay with Afatinib + Pictilisib (first compound 0.05 µM); 0.447 with Afatinib + Pictilisib (first compound 0.1581 µM); 0.27 with Afatinib + Pictilisib (first compound 0.5 µM); 0.57 with Afatinib + Phenformin (first compound 0.005 µM). In addition, the relative viability stood at 0.388 in the assay with Afatinib + Phenformin (first compound 0.01581 µM); 0.361 with Afatinib + Phenformin (first compound 0.05 µM); 0.244 with Afatinib + Phenformin (first compound 0.1581 µM); 0.407 with Afatinib + Phenformin (first compound 0.5 µM); 0.51 in the assay with Afatinib + Palbociclib (first compound 0.005 µM); 0.209 with Afatinib + Palbociclib (first compound 0.01581 µM). Further, the figures for the relative viability with Afatinib + Palbociclib (first compound 0.05 µM), with Afatinib + Palbociclib (first compound 0.1581 µM) and with Afatinib + Palbociclib (first compound 0.5 µM) were 0.213, 0.172 and 0.161, respectively.
